# Assay results published in ChEMBL document CHEMBL2074180, “Human P-glycoprotein transports cyclosporin A and FK506” (J Biol Chem, 1993).
# Target: ATP-dependent translocase ABCB1 (Homo sapiens, UniProt P08183)
# Test: TP_TRANSPORTER: transepithelial transport of tacrolimus (basal to apical) (Tacrolimus: 6.2 uM) in MDR1-expressing LLC-PK1 cells
# Type: functional, cell-based
# Conditions: pig, llc-pk1, 6.2 µM
# ATP-dependent translocase ABCB1, sequence (P08183 whole entry): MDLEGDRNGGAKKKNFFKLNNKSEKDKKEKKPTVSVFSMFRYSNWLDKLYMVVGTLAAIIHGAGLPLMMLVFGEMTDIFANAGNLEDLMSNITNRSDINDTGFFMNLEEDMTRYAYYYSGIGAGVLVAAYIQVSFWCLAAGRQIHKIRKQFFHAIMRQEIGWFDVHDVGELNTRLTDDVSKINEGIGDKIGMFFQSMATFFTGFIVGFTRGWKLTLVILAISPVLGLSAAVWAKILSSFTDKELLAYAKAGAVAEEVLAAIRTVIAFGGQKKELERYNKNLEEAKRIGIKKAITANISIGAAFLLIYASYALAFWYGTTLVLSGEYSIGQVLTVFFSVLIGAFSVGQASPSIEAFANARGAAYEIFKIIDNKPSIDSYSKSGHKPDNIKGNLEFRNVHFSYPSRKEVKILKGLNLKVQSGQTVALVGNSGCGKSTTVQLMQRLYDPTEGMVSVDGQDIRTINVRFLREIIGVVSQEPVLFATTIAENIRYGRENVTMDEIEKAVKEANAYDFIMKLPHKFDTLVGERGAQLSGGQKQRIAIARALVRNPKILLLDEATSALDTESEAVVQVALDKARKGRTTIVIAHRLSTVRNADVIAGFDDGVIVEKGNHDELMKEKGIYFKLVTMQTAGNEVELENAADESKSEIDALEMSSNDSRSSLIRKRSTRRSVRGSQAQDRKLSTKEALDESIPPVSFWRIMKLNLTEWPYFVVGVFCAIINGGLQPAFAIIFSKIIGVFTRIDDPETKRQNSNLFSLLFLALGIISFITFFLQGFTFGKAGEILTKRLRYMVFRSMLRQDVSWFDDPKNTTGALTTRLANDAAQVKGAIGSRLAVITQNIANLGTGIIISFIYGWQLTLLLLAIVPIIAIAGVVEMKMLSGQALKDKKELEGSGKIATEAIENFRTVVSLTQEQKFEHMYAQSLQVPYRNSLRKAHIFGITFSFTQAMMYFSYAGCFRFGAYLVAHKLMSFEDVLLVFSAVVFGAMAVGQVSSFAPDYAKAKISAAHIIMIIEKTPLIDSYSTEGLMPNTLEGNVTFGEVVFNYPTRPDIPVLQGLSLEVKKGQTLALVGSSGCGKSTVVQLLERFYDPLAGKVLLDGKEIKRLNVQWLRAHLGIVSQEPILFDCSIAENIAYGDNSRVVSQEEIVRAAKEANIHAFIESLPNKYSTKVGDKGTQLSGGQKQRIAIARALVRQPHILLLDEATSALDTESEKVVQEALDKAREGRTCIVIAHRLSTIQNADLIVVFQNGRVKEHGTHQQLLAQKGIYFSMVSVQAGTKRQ
smiles,measurement,value
C=CC[C@@H]1/C=C(\C)C[C@H](C)C[C@H](OC)[C@H]2O[C@@](O)(C(=O)C(=O)N3CCCC[C@H]3C(=O)O[C@H](/C(C)=C/[C@@H]3CC[C@@H](O)[C@H](OC)C3)[C@H](C)[C@@H](O)CC1=O)[C@H](C)C[C@@H]2OC [TACROLIMUS ANHYDROUS],Activity,inhibitor [+]
